Patent US20150023884A1, “Antiperspirant Spray Devices and Compositions” (The Procter & Gamble Company, priority 2013, published 2015)

Text: (§1) Solubility may be determined by measuring the amount of light transmittance (a light transmittance value) through a simple mixture of the non-volatile silicone fluid and liquid activation enhancer at the same weight/weight concentrations as in a final antiperspirant composition.
as §1, with “Solubility of a liquid activation enhancer in a non-volatile silicone” for “Solubility”, “(light” for “(a light”
The Spectronic Genesys 10 Vis utilizes a tungsten-halogen light source and has a spectral bandwidth of 5 nm, a wavelength range of 325 to 1100 nm, accuracy of ±1 nm and a repeatability of ±0.5 nm. Readouts include absorbance, transmittance and concentration. The spectrophotometer is set to 640 nm wavelength and the percent transmittance mode/readout. Polystyrene spectrometer cuvettes having a 1 cm optical light path and transmittance between ˜340 nm and ˜900 nm are used. One suitable example of a spectrometer cuvette is available from VWR International LLC under Catalog #97000-584 having a 2.5 to 4.5 ml capacity. […] The sample cuvettes are shaken well just prior to taking a light transmittance reading.

SMILES	light transmittance value
CCCCCCCCCCCCCCCCCC(=O)OCCCC [butyl stearate]	about 100%
CCCCCCCCCCCCCC(C)C [isohexadecane]	about 100%
